Test results from PMC6492180, “Cytome micronucleus assays with a metabolically competent human derived liver cell line (Huh6): A promising approach for routine testing of chemicals?” (Environmental and Molecular Mutagenesis, 2018).
Like-named read-outs stand apart in the source and are kept apart here. Marks after values point to notes of the source that are not given here.

Legend:
[1] = system: Human lymphocytes; settings: Human lymphocytes, + S9; ref Katic et al., 2010; cited from earlier work
[2] = system: HepaRG; settings: HepaRG; ref Le Hegarat et al., 2010; cited from earlier work
[3] = system: HepG2; settings: HepG2; ref Majer et al., 2004; cited from earlier work
[4] = system: Huh6 cells
Procedure: All experiments were performed in duplicate.
3.8–4.0 × 10^5 cells per well were seeded into 6‐well plates with 3 mL of RPMI (4% FBS) for 12 hr, then dilutions of stock solutions of the diagnostic mutagens were added for different time periods (4, 24, and 48 hr). In each experimental series solvent controls were included. Subsequently, the cells were washed twice with 3.0 mL medium. […] Finally, the cells were washed and trypsinised. Afterwards the cells were washed twice with 8.0 mL RPMI and collected on slides by cytocentrifugation (600 rpm, 5 min). The slides were air dried, fixed, and stained with DiffQuick according to the instructions of the manufacturer. For each experimental point, two cultures were tested per dose. From each culture ≥1,000 BN cells were evaluated under 400‐fold magnification (Nikon Photophot‐FXA, Tokyo, Japan). At least 2,000 binucleated cells were analyzed per dose for the determination of the different nuclear anomalies (MN, NBuds, and NBs).
The experiments were performed as described in the previous chapter. The cells were exposed only to one dose of the different mutagens and were cultivated after the seeding in 6‐well plates which contained 4% or 10% FBS in RPMI, respectively.
Data were evaluated by generalized linear model with Poisson counts. Chi‐square tests for overdispersion were applied. […] P values ≤0.05 were considered statistically significant.
^150-60 000 cells were seeded in 6 well plates with 3 ml RPMI (4% FBS), subsequently different solutions of the test compound (dissolved in medium) were added. After treatment for different time periods, the cells was washed and processed as described in the Material and Method section. […] From each culture 1000 binoculated cells were evaluated. BN-MN – number of micronucleated cells; MN - total number of micronuclei; CBPI – cytokinesis-block proliferation index
^1The experiments were conducted essentially as described in the footnote of Table S1A-I. *p≤0.05

[5] = system: Hep3B; settings: Hep3B; ref Majer et al., 2004; cited from earlier work
[6] = ref IARC (2018); cited from earlier work
[7] = 10% FBS, 24 hr treatment, 50 µM
[8] = 10% FBS, 24 hr treatment, 100 µM

Compound: Cn1c(N)nc2ncc(-c3ccccc3)cc21 [PhiP, 2‐Amino‐1‐methyl‐6‐phenylimidazo[4,5‐b]pyridine]
- Lowest effective concentration (LOEC) in micronucleus experiments [1]: 2.5 + S9 (Katic et al., 2010) μM
- Lowest effective concentration (LOEC) in micronucleus experiments [2]: Negative
- NOEC (highest no observable effect concentration tested) [2]: 320.0 µM
- Lowest effective concentration (LOEC) in micronucleus experiments [3]: 25.0 (Majer et al., 2004) μM
- MN effects after 24 hr (or longer) compared with 4 hr treatment (in words) ([4]; 4% FBS): more pronounced effects
- BN-MN (number of micronucleated cells) ([4]; 4% FBS, 4hrs, 25 µM): 23.5 ± 0.7 ‰
- Bridges ([4]; 4% FBS, 4hrs, 25 µM): 0.5 ± 0.7 ‰
- Buds ([4]; 4% FBS, 4hrs, 25 µM): 18.0 ± 5.7 ‰
- CBPI ([4]; 4% FBS, 4hrs, 25 µM): 1.7 ± 0.1
- MN (total number of micronuclei) ([4]; 4% FBS, 4hrs, 25 µM): 23.5 ± 0.7 ‰
- BN-MN (number of micronucleated cells) ([4]; 4% FBS, 4hrs, 50 µM): 22.5 ± 2.1 ‰
- Bridges ([4]; 4% FBS, 4hrs, 50 µM): 2.0 ± 1.4 ‰
- Buds ([4]; 4% FBS, 4hrs, 50 µM): 19.0 ± 7.1 ‰
- CBPI ([4]; 4% FBS, 4hrs, 50 µM): 1.6 ± 0.2
- MN (total number of micronuclei) ([4]; 4% FBS, 4hrs, 50 µM): 22.5 ± 2.1 ‰
- BN-MN (number of micronucleated cells) ([4]; 4% FBS, 4hrs, 100 µM): 26 ± 1.4 ‰
- Bridges ([4]; 4% FBS, 4hrs, 100 µM): 1.5 ± 0.7 ‰
- Buds ([4]; 4% FBS, 4hrs, 100 µM): 23.5 ± 6.4 ‰
- CBPI ([4]; 4% FBS, 4hrs, 100 µM): 1.7 ± 0.0
- MN (total number of micronuclei) ([4]; 4% FBS, 4hrs, 100 µM): 28 ± 1.4 ‰
- BN-MN (number of micronucleated cells) ([4]; 4% FBS, 24hrs, 25 µM): 17.5 ± 2.1 ‰
- Bridges ([4]; 4% FBS, 24hrs, 25 µM): 0.0 ± 0.0 ‰
- Buds ([4]; 4% FBS, 24hrs, 25 µM): 10.5 ± 0.7 ‰
- CBPI ([4]; 4% FBS, 24hrs, 25 µM): 1.9 ± 0.1
- MN (total number of micronuclei) ([4]; 4% FBS, 24hrs, 25 µM): 17.5 ± 2.1 ‰
- BN-MN (number of micronucleated cells) ([4]; 4% FBS, 24hrs, 50 µM): 26.5 ± 0.7* ‰
- Bridges ([4]; 4% FBS, 24hrs, 50 µM): 1.5 ± 0.7 ‰
- Buds ([4]; 4% FBS, 24hrs, 50 µM): 24.5 ± 0.7* ‰
- CBPI ([4]; 4% FBS, 24hrs, 50 µM): 1.8 ± 0.0
- MN (total number of micronuclei) ([4]; 4% FBS, 24hrs, 50 µM): 30.0 ± 1.4* ‰
- BN-MN (number of micronucleated cells) ([4]; 4% FBS, 24hrs, 100 µM): 49.5 ± 2.1* ‰
- Bridges ([4]; 4% FBS, 24hrs, 100 µM): 3.0 ± 0.0 ‰
- Buds ([4]; 4% FBS, 24hrs, 100 µM): 34.0 ± 1.4* ‰
- CBPI ([4]; 4% FBS, 24hrs, 100 µM): 1.9 ± 0.0
- MN (total number of micronuclei) ([4]; 4% FBS, 24hrs, 100 µM): 49.5 ± 2.1* ‰
- BN-MN (number of micronucleated cells) ([4]; 4% FBS, 48hrs, 25 µM): 20.0 ± 1.4 ‰
- Bridges ([4]; 4% FBS, 48hrs, 25 µM): 0.0 ± 0.0 ‰
- Buds ([4]; 4% FBS, 48hrs, 25 µM): 20.5 ± 3.5 ‰
- CBPI ([4]; 4% FBS, 48hrs, 25 µM): 1.9 ± 0.1
- MN (total number of micronuclei) ([4]; 4% FBS, 48hrs, 25 µM): 20.5 ± 0.7 ‰
- BN-MN (number of micronucleated cells) ([4]; 4% FBS, 48hrs, 50 µM): 20.5 ± 3.5 ‰
- Bridges ([4]; 4% FBS, 48hrs, 50 µM): 0.5 ± 0.7 ‰
- Buds ([4]; 4% FBS, 48hrs, 50 µM): 22.0 ± 4.2 ‰
- CBPI ([4]; 4% FBS, 48hrs, 50 µM): 1.9 ± 0.0
- MN (total number of micronuclei) ([4]; 4% FBS, 48hrs, 50 µM): 21.5 ± 3.5 ‰
- BN-MN (number of micronucleated cells) ([4]; 4% FBS, 48hrs, 100 µM): 22.0 ± 1.4 ‰
- Bridges ([4]; 4% FBS, 48hrs, 100 µM): 0.5 ± 0.7 ‰
- Buds ([4]; 4% FBS, 48hrs, 100 µM): 29.5 ± 0.7* ‰
- CBPI ([4]; 4% FBS, 48hrs, 100 µM): 1.8 ± 0.2
- MN (total number of micronuclei) ([4]; 4% FBS, 48hrs, 100 µM): 24.0 ± 1.4 ‰
- BN-MN (number of micronucleated cells) [4, 7]: 50.0 ± 2.8*
- Bridges [4, 7]: 1.0 ± 1.4
- Buds [4, 7]: 50.0 ± 1.4
- CBPI [4, 7]: 2.0 ± 0.1
- MN (total number of micronuclei) [4, 7]: 56.5 ± 2.1*
- BN-MN (number of micronucleated cells) [4, 8]: 55.0 ± 11.3*
- Bridges [4, 8]: 1.5 ± 0.7
- Buds [4, 8]: 60.0 ± 7.1*
- CBPI [4, 8]: 1.8 ± 0.0
- MN (total number of micronuclei) [4, 8]: 61 ± 12.7*
- MN frequencies with 10% serum compared with 4% serum (in words) ([4]; 24 hr treatment): stronger effects
- Lowest effective concentration (LOEC) in micronucleus experiments ([4]; Huh6): 50.0 µM
- Lowest effective concentration (LOEC) in micronucleus experiments [5]: Negative
- NOEC (highest no observable effect concentration tested) [5]: 300.0 µM
- IARC classification [6]: Formation of guanine adducts; activation: CYP1A2 and SULT; detoxification: GSTs; IARC: Group 2B
